Values joined by “and” are separate entries in the source; they are usually repeats but may differ in a detail not shown here. Identical values can stand only once. Like-named read-outs stand apart in the source and are kept apart here.
Assay: Pharmacokinetics after repeated oral administration of 35 μg/kg of fluralaner in dogs after feeding
Type: in vivo, beagle dogs
Details: oral 35 μg/kg Days 0-3, dogs; for concentration at 480 h / concentration at 576 h / concentration at 672 h / AUC(0-inf) / AUC(0-t) / Cmax / half-life: beagle, dog, plasma, po; for concentration at 480 h / concentration at 576 h / concentration at 672 h: 35 μg/kg; for AUC(0-inf) / AUC(0-t) / Cmax / half-life: 35 ug/kg
Procedure: The first objective of the study was to obtain the pharmacokinetic parameters after repeated oral administration of 35 μg/kg of fluralaner in dogs, 30 to 35 minutes after feeding.
The second objective was to investigate the pharmacodynamics between the fluralaner plasmatic dose and the effectiveness against fleas. • IVP: Investigational Veterinary Product, is pure Fluralaner+DMSO (35 μg/kg on Days 0 to 3 (0.35 mL/kg)) • Control product is DMSO (0.35 mL/kg on Days 0 to 3)
On Days 0, 1, 2 and 3, all dogs assigned to group 2 received the Investigational Veterinary Product. On Days 0 to 3 all dogs in group 1 received the control product at a volume equal to the dogs in group 2. Dogs assigned to group 1 received the control product and served as Placebo controls. The quantity of Investigational Veterinary Product and control product administered was calculated according to the dog's individual body weight measured on Day −1.
Blood samples were taken from all dogs prior to Investigational Veterinary Product treatment or control product administration on Day 0 and on Days 1 (+24 hours), 2 (+48 hours), 3 (+72 hours), 4 (+96 hours), 5 (+120 hours), 10 (+240 hours), 15 (+360 hours), 20 (+480 hours), 24 (+576 hours) and Day 28 (+672 hours).
On days of administration of pre-Investigational Veterinary Product or Control Product, dogs were fed (the same dog food) approximately half of their normal daily ration 30 minutes to 35 minutes prior to administration. Food consumed by the time of administration was calculated and recorded. The remainder of their normal daily ration was fed immediately after administration.
The PK parameters of fluralaner were calculated using a non-compartmental approach.
The following rules were applied for the calculation of the PK parameters: • All the plasma concentrations, validated by the bioanalytical laboratory, were used for the PK analysis. • The actual blood sampling times were used throughout. • Concentrations below the Limit of Quantification (LOQ) value were considered as zero from time zero (pre-dose) up to the time at which the first quantifiable concentration above the LOQ value was observed. Concentrations below the LOQ value between two quantifiable concentrations were considered as missing. Trailing concentrations below the LOQ value were not used in calculations.
Cmax the observed maximum concentration in plasma measured after dosing.
tmax the time at which Cmax was apparent.
λz the terminal rate constant (λz) was estimated by log-linear regression analysis on data points visually assessed, to be on the terminal log-linear phase. For the slope of the terminal elimination phase to be accepted as reliable, the following criteria were used: • the terminal data points were apparently randomly distributed about a single straight line (on visual inspection), • a minimum of three data points, including the last measured data point and excluding Cmax, were available for the regression.
t1/2 the terminal plasma half-life (t1/2) was calculated according to the following equation: […]
AUC0-t the area under the concentration-time curve from time zero (pre-dose) to the time of last quantifiable concentration (t) was calculated using a linear trapezoidal method.
[AUC0-∞=AUC0-t+(Ct/λz)], where Ct was the observed concentration of drug for the last sample on the PK profile in which the drug was detected, and λz was as defined above.
The extrapolated area under the curve, expressed as a percentage of the total area, AUCinf, was also calculated as: Area Extra (%)=(AUC0-∞−AUC0-t)/AUC0-∞*100%.

[1] = n=6, read-out: fluralaner concentration levels, Mean
[2] = n=6, read-out: fluralaner concentration levels, Median
[3] = n=6, read-out: fluralaner concentration levels, Minimum
[4] = read-out: fluralaner concentration levels, individual animal
[5] = n=6, read-out: fluralaner concentration levels, GeoMean
[6] = n=6, read-out: fluralaner concentration levels, Maximum

**Q.** For Cc1cc(C2=NOC(c3cc(Cl)cc(Cl)c3)(C(F)(F)F)C2)ccc1C(=O)NCC(=O)NCC(F)(F)F (stereo not drawn) [fluralaner, Fluralaner], which concentration at 480 h [1] is on record?
**A.** The concentration at 480 h was 22.4 ng/mL.

**Q.** And the concentration at 480 h [2]?
**A.** Its concentration at 480 h is 23.2 ng/mL.

**Q.** What about the concentration at 480 h [3] of the same compound?
**A.** Its concentration at 480 h is 17.1 ng/mL.

**Q.** And the concentration at 480 h [4]?
**A.** Its concentration at 480 h is 25.3 ng/mL.

**Q.** What about the concentration at 576 h [5] of the same compound?
**A.** The concentration at 576 h was 17.1 ng/mL.

**Q.** And the concentration at 576 h [6]?
**A.** The concentration at 576 h was 22.2 ng/mL.

**Q.** And the concentration at 576 h [1]?
**A.** The concentration at 576 h was 17.4 ng/mL.

**Q.** And the concentration at 576 h [2]?
**A.** Its concentration at 576 h is 16.1 ng/mL.

**Q.** And the concentration at 576 h [3]?
**A.** The concentration at 576 h was 13.3 ng/mL.

**Q.** And the concentration at 576 h [4]?
**A.** Its concentration at 576 h is 17.3 ng/mL.

**Q.** What about the concentration at 672 h [5] of the same compound?
**A.** Its concentration at 672 h is 12.5 ng/mL.

**Q.** And the concentration at 672 h [6]?
**A.** Its concentration at 672 h is 16 ng/mL.

**Q.** And the concentration at 672 h [1]?
**A.** The concentration at 672 h was 12.8 ng/mL.

**Q.** What about the concentration at 672 h [2] of the same compound?
**A.** Its concentration at 672 h is 12.8 ng/mL.

**Q.** What about the concentration at 672 h [3] of the same compound?
**A.** Its concentration at 672 h is 9.1 ng/mL.

**Q.** What about the concentration at 672 h [4] of the same compound?
**A.** The concentration at 672 h was 16 ng/mL.

**Q.** What about the AUC(0-inf) (n=6, read-out: AUC 0-inf, GeoMean) of the same compound?
**A.** Its AUC(0-inf) is 27900 ng·h/mL.

**Q.** And the AUC(0-inf) (n=6, read-out: AUC 0-inf, Mean)?
**A.** The AUC(0-inf) was 28100 ng·h/mL.

**Q.** And the AUC(0-inf) (n=6, read-out: AUC 0-inf, Median)?
**A.** Its AUC(0-inf) is 28300 ng·h/mL.

**Q.** What about the AUC(0-t) (n=6, read-out: AUC 0-t, GeoMean) of the same compound?
**A.** Its AUC(0-t) is 23900 ng·h/mL.

**Q.** And the AUC(0-t) (n=6, read-out: AUC 0-t, Mean)?
**A.** The AUC(0-t) was 23900 ng·h/mL.

**Q.** What about the AUC(0-t) (n=6, read-out: AUC 0-t, Median) of the same compound?
**A.** Its AUC(0-t) is 24000 ng·h/mL.

**Q.** What about the Cmax (n=6, read-out: Cmax, GeoMean) of the same compound?
**A.** Its Cmax is 84 ng/mL.

**Q.** What about the Cmax (n=6, read-out: Cmax, Mean) of the same compound?
**A.** Its Cmax is 84.4 ng/mL.

**Q.** And the Cmax (n=6, read-out: Cmax, Median)?
**A.** Its Cmax is 87 ng/mL.

**Q.** And the half-life (n=6, read-out: t½ (terminal half-life), Mean (converted))?
**A.** The half-life was 217 h.

**Q.** What about the half-life (n=6, read-out: t½, GeoMean (converted)) of the same compound?
**A.** Its half-life is 214 h.

**Q.** What about the half-life (n=6, read-out: t½, Median (converted)) of the same compound?
**A.** Its half-life is 233 h.

**Q.** And the AUC(0-inf) (read-out: AUC 0-inf, individual animal)?
**A.** The AUC(0-inf) was 31000 ng·h/mL.

**Q.** And the AUC(0-t) (read-out: AUC 0-t, individual animal)?
**A.** Its AUC(0-t) is 25000 ng·h/mL.

**Q.** What about the Cmax (read-out: Cmax, individual animal) of the same compound?
**A.** The Cmax was 71.8 ng/mL.

**Q.** And the Cmax (read-out: maximum concentration (Cmax), range)?
**A.** The Cmax was 71.8 to 92.4 ng/mL.

**Q.** And the half-life (read-out: terminal half-life, range)?
**A.** The half-life was 155 to 261 h.

**Q.** And the half-life (read-out: t½, individual animal (converted))?
**A.** The half-life was 261 h.

**Q.** What about the “AUC 0-inf, individual animal” value of the same compound?
**A.** The value was 26895 ng·h/mL and 31726 ng·h/mL and 29670 ng·h/mL and 23684 ng·h/mL and 25369 ng·h/mL.

**Q.** And the “AUC 0-t, individual animal” value?
**A.** Its value is 23395 ng·h/mL and 26334 ng·h/mL and 24538 ng·h/mL and 21644 ng·h/mL and 22612 ng·h/mL.

**Q.** What about the “AUC extrap, individual animal” value of the same compound?
**A.** The value was 19.5% and 13.0% and 17.0% and 17.3% and 8.6% and 10.9%.

**Q.** And the “Cmax, individual animal” value?
**A.** Its value is 92.4 ng/mL and 89.4 ng/mL and 76.6 ng/mL and 91.6 ng/mL and 84.5 ng/mL.

**Q.** And the “Lambda z, individual animal” value?
**A.** Its value is 0.0027 and 0.0030 (2×) and 0.0029 and 0.0045 and 0.0037.

**Q.** What about the “t½, individual animal” value of the same compound?
**A.** The value was 233.3 h and 233.6 h and 235.6 h and 155.2 h and 185.6 h.

**Q.** And the “AUC 0-inf, Maximum” value (n=6)?
**A.** The value was 31726 ng·h/mL.

**Q.** And the “AUC 0-inf, Minimum” value (n=6)?
**A.** Its value is 23684 ng·h/mL.

**Q.** What about the “AUC 0-t, Maximum” value (n=6) of the same compound?
**A.** Its value is 26334 ng·h/mL.

**Q.** And the “AUC 0-t, Minimum” value (n=6)?
**A.** The value was 21644 ng·h/mL.

**Q.** What about the “AUC extrap, GeoMean” value (n=6) of the same compound?
**A.** The value was 13.82%.

**Q.** What about the “AUC extrap, Maximum” value (n=6) of the same compound?
**A.** The value was 19.5%.

**Q.** And the “AUC extrap, Mean” value (n=6)?
**A.** The value was 14.38%.

**Q.** And the “AUC extrap, Median” value (n=6)?
**A.** Its value is 15.00%.

**Q.** And the “AUC extrap, Minimum” value (n=6)?
**A.** The value was 8.6%.

**Q.** And the “Cmax, Maximum” value (n=6)?
**A.** Its value is 92.4 ng/mL.

**Q.** What about the Lambda z, GeoMean (n=6) of the same compound?
**A.** The Lambda z, GeoMean was 0.00324 h⁻¹.

**Q.** And the “Lambda z, Maximum” value (n=6)?
**A.** Its value is 0.0045.

**Q.** What about the Lambda z, Mean (n=6) of the same compound?
**A.** Its Lambda z, Mean is 0.00329 h⁻¹.

**Q.** And the Lambda z, Median (n=6)?
**A.** The Lambda z, Median was 0.00297 h⁻¹.

**Q.** And the Lambda z, Minimum (n=6)?
**A.** The Lambda z, Minimum was 0.0027 h⁻¹.

**Q.** And the “t½, Maximum” value (n=6)?
**A.** The value was 261.4 h.

**Q.** What about the “t½, Minimum” value (n=6) of the same compound?
**A.** Its value is 155.2 h.

Source: patent US12714696B2, “Low dose fluralaner compositions for protection against parasitic invertebrate pest” (VIRBAC, priority 2019, dated 2026)
